According to ChEMBL document CHEMBL1201862, “PubChem BioAssay data set” (2004):
The source made the active and inactive calls.

Assays:
cells [1] = type: functional, cell-based
[2] = target: T1, Trace amine-associated receptor 1 (Homo sapiens, UniProt Q96RJ0); experiment: Fluorescence-based cell-based high throughput dose response assay to identify agonists of the human trace amine associated receptor 1 (TAAR1).; type: functional
T1 sequence (Q96RJ0 whole entry): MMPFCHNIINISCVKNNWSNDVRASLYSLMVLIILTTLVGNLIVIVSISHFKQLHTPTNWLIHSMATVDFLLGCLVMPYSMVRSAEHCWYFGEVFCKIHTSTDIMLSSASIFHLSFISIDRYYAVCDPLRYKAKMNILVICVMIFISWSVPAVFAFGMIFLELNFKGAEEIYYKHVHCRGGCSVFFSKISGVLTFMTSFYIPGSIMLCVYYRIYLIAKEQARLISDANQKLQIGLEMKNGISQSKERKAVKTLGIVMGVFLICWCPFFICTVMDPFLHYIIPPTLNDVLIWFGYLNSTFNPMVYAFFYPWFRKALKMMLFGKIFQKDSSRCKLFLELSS

[3] = target: T1, Trace amine-associated receptor 1; experiment: Counterscreen for agonists of the human trace amine associated receptor 1 (hTAAR1): Fluorescence-based cell-based high throughput dose response assay to identify hTAAR1 agonist that also desensitize TAAR1 receptor response.; type: functional
cells [4] = type: functional, cell-based; remark: listed apart in the source
[5] = target: T2, Heat shock factor protein 1 (Mus musculus, UniProt P38532); experiment: inhibition of MG132-induced HSE-luciferase signal, confirmation, cell-based, NIH3T3, luminescence, dose retest (AID 2382); type: functional;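 further: NIH3T3 fibroblasts with HSF1-driven luciferase reporter stressed by proteasome inhibitor MG132; luminescence from HSF1-driven luciferase expression after 8 hours of MG132 stress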
T2 sequence (P38532 whole entry): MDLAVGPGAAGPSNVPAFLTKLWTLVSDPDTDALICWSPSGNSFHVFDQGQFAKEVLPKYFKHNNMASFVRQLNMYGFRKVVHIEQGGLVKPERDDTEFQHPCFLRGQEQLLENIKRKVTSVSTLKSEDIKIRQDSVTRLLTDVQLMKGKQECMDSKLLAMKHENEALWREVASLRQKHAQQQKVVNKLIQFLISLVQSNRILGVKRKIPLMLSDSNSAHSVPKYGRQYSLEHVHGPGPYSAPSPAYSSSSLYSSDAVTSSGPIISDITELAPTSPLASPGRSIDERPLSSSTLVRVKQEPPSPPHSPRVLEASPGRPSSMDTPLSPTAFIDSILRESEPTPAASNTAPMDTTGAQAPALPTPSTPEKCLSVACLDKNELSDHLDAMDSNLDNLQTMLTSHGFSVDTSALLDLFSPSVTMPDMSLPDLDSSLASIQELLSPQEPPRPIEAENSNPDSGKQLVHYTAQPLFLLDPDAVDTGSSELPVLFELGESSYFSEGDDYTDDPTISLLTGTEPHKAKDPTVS

[6] = target: Fructose-bisphosphate aldolase (Mycobacterium tuberculosis, UniProt P9WQA3); experiment: Fluorescence-based biochemical high throughput dose response assay for inhibitors of the fructose-bisphosphate aldolase (FBA) of M. tuberculosis.; type: functional
Sequence of Fructose-bisphosphate aldolase (P9WQA3 whole entry): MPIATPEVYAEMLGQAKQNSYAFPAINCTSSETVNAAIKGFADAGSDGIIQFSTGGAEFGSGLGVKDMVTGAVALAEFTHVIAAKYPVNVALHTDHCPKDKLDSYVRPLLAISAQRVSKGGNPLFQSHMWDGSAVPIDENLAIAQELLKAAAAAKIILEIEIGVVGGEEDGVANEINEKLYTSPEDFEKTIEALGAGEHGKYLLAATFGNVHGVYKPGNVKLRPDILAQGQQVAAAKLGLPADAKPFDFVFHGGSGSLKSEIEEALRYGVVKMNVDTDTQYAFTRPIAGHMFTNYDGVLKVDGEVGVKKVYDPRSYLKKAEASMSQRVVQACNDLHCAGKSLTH

[7] = inhibitors of intracellular T. cruzi replication, confirmation, NIH3T3 host cells, beta-gal luminescence (AID 2044); type: functional, cell-based;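 further: intracellular parasites grown in NIH/3T3 mouse fibroblasts as host cells; luminescent beta-galactosidase reporter signal from transgenic T. cruzi replicating inside host cells; inhibitors lower the luminescence signal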
[8] = cytotoxicity toward NIH3T3 fibroblasts, dose response, counter-screen, cell-based, ATP luminescence, mouse fibroblasts (AID 2010); type: functional;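 further: cells exposed to compound for about 90 hours before reading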
[9] = target: Voltage-dependent T-type calcium channel subunit alpha-1H (Homo sapiens, UniProt O95180); type: functional;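 further: channel activity triggered by adding a high calcium stimulation buffer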
Sequence of Voltage-dependent T-type calcium channel subunit alpha-1H (O95180 whole entry): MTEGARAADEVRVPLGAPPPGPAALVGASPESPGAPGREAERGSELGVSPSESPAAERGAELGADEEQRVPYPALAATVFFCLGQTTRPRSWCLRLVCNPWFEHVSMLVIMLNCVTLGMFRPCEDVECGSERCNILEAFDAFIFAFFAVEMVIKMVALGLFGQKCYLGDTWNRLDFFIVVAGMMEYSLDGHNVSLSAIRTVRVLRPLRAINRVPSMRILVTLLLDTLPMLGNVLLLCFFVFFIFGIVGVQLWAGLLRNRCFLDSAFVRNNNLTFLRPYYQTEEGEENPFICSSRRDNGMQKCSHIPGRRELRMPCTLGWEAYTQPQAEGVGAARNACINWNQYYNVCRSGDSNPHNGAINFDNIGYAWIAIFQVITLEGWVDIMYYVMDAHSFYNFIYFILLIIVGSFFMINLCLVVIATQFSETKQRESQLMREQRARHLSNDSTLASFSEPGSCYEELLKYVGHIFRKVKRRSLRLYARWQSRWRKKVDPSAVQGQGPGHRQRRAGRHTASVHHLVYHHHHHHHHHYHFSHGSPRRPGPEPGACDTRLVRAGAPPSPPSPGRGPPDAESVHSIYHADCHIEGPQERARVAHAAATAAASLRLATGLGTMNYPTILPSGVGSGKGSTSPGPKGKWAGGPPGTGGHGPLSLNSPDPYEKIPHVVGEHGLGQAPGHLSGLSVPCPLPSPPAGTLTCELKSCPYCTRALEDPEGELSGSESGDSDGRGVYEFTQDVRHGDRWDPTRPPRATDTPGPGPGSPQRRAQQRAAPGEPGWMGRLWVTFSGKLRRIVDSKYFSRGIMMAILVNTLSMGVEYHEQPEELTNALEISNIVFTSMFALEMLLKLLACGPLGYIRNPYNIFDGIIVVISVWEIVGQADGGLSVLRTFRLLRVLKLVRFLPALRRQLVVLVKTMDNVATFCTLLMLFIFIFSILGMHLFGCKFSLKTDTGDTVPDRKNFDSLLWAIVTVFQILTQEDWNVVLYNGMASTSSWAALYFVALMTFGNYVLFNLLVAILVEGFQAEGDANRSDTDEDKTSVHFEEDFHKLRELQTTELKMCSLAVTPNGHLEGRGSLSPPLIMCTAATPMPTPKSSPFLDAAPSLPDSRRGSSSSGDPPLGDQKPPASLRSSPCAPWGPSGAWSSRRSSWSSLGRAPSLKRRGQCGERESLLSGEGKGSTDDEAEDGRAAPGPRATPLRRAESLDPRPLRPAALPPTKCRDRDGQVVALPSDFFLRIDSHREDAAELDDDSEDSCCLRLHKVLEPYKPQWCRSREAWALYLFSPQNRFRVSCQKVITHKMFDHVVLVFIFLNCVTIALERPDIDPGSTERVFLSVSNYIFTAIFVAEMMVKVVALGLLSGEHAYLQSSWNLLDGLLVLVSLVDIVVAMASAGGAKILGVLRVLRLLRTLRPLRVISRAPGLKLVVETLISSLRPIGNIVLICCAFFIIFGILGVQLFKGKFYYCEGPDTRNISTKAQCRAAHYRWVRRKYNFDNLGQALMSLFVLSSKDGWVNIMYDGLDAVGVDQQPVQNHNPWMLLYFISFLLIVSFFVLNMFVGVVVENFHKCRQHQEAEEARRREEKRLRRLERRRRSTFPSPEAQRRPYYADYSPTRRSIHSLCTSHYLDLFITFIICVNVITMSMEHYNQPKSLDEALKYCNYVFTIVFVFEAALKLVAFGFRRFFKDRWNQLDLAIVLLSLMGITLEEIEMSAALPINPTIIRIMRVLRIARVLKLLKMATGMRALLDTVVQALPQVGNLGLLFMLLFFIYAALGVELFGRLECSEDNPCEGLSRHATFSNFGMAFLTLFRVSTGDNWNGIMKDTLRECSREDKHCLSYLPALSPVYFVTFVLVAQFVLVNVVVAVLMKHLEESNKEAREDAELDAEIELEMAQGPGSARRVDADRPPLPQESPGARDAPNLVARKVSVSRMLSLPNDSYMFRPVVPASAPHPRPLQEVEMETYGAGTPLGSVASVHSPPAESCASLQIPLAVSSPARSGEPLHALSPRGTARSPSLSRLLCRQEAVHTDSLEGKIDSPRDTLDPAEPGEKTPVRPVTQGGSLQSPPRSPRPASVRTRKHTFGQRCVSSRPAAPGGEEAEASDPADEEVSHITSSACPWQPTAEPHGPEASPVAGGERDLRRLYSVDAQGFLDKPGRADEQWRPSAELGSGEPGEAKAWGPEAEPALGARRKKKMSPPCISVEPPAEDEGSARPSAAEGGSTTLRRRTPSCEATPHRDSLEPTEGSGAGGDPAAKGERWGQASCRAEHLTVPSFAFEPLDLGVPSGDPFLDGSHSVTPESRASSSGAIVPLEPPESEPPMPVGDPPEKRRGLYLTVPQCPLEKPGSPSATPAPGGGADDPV

[10] = target: T3, Corticotropin-releasing factor receptor 2/Corticotropin-releasing factor-binding protein (Homo sapiens, UniProt P24387+Q13324); experiment: Dose Response confirmation of uHTS hits for small molecule antagonists of the CRF-binding protein and CRF-R2 receptor complex.; type: functional; conditions: read-out: IC50_Mean
T3 sequence (Q13324 whole entry): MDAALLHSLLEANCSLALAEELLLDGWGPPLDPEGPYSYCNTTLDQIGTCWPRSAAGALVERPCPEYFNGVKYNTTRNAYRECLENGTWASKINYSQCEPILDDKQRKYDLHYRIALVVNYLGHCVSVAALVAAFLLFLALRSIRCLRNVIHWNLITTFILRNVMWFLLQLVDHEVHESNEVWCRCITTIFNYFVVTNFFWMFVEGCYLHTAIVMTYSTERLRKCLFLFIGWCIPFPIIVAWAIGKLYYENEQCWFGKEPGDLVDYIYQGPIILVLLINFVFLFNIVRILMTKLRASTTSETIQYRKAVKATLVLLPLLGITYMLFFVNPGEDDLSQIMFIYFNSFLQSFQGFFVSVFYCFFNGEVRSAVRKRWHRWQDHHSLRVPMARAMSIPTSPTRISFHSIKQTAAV
T3 sequence (P24387 whole entry): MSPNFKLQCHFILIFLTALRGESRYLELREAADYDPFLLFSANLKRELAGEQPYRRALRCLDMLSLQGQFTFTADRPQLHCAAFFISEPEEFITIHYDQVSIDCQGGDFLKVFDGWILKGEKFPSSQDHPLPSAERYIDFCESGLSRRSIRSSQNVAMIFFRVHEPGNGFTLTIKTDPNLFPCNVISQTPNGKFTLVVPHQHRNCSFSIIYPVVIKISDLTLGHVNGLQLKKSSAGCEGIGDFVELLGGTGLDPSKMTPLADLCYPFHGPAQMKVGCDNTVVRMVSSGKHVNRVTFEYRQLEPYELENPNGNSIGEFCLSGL

[11] = target: T3, Corticotropin-releasing factor receptor 2/Corticotropin-releasing factor-binding protein; experiment: activators of CRF receptor 2 with binding protein – uHTS hits, confirmation (AID 602473); type: functional; conditions: read-out: EC50_Mean
Beta-galactosidase = Beta-galactosidase (Escherichia coli, UniProt Q8VNN2); experiment: Dose response counterscreen for EBI2 assay utilizing the enzyme, b-galactosidase.; type: functional
Sequence of Beta-galactosidase (Q8VNN2 whole entry): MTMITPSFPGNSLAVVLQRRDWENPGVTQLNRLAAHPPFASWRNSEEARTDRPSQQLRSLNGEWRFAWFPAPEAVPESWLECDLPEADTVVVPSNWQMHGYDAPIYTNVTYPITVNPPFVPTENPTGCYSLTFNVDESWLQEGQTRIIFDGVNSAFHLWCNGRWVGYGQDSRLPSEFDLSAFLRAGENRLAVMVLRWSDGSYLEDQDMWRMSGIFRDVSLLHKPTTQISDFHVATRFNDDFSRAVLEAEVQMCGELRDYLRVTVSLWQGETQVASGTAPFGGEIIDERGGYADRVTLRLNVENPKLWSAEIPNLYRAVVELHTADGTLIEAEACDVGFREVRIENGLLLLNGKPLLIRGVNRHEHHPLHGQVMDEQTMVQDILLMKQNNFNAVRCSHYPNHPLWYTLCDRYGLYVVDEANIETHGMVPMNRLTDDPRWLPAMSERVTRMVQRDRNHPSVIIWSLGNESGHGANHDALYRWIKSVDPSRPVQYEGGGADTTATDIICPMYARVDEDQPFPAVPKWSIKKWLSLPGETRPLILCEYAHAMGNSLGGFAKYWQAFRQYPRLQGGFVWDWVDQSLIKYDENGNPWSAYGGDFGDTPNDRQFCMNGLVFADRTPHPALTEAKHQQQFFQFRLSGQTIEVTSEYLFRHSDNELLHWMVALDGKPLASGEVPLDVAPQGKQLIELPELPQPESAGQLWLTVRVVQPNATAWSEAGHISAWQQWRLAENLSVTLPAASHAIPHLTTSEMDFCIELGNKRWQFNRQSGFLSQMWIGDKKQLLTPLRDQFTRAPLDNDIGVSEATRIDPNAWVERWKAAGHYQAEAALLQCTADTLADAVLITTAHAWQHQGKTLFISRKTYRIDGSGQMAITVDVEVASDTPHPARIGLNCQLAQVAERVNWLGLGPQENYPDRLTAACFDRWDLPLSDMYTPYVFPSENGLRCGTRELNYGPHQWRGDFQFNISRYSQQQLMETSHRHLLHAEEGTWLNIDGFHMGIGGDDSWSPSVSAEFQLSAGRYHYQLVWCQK

[12] = target: T2, Heat shock factor protein 1; experiment: HSF1 potentiators in luciferase reporter cells, confirmation, cell-based, NIH3T3, luminescence, dose retest (AID 435004); type: functional;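 further: stress induced by proteasome inhibitor MG132 added 30 min after compound; luciferase reporter driven by HSF1 response element in NIH3T3 cells; actives raise luminescence as potentiators of the MG132 stress response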
Prothrombin = Prothrombin (Homo sapiens, UniProt P00734); experiment: Thrombin 1536 HTS Dose Response Confirmation. [Related pubchem assays: 1046 (Thrombin 1536 HTS; hits were confirmed in this assay)]; type: functional
H9c2 = experiment: cells; type: functional, cell-based; conditions: Rattus norvegicus, H9c2, Myocardium;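 further: confirmatory concentration-response retest of ultra-high-throughput screening hits for modulation of myocardial damage; cell death induced by hydrogen peroxide oxidative stress; compound pretreatment for 60 min then peroxide exposure for 2 h; potency is for protecting the cells against peroxide damage rather than for killing them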
[13] = A549 cell cytotoxicity, dose response, cytotoxicity control, plate reader, cherry-pick, antagonist series (AID 743412); type: functional, cell-based
[14] = HepG2 cell cytotoxicity, dose response, cytotoxicity control, plate reader, cherry-pick, antagonist series (AID 743416); type: functional, cell-based
[15] = LGR2 antagonists, dose response, cell-based, HEK293, CRE-luciferase reporter, cherry pick, set 2 (AID 743343); type: functional;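 further: transfected cells were stimulated with diluted bursicon conditioned medium after compound addition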
[16] = MC4R antagonists, dose response, counter-screen for LGR2 antagonist project, cell-based, plate reader, cherry pick (AID 743444); type: functional;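 further: transfected HEK 293 cells stimulated with alpha-MSH peptide; potency of inhibitors of the alpha-MSH evoked signal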
[17] = HEK293T cytotoxicity, dose response, cytotoxicity control for miR-122 modulator project, cell-based, inhibitor set, cherry-pick, set 2 (AID 720697); type: functional

Structure (SMILES): O=C(CC1C(=O)NCCN1Cc1ccccn1)NCCc1ccccc1F (stereo unspecified)
- IC50 (cells [1]): > 29.9 µM (inactive)
- EC50 [2]: 2.12 µM (active)
- IC50 [3]: 5.23 µM (active)
- EC50 (cells [4]): > 29.9 µM (inactive)

Structure (SMILES): Cc1c(O)ccc2c(CC(=O)N[C@@H](Cc3ccc(O)cc3)C(=O)O)cc(=O)oc12
- EC50 [5]: > 195 µM (not active)
- IC50 [6]: 0.906 µM (active)

Structure (SMILES): Cc1ccc(OCC(=O)N2CCN(c3nnc(-c4ccc(C)cc4)c4ccccc34)CC2)cc1
- EC50 [7]: 3.12 µM (active)
- EC50 [8]: > 60 µM (not active)
- EC50 [9]: 2.35 µM (active)
- IC50 [10]: > 47.1 µM (inactive)
- EC50 [11]: > 53 µM (inactive)
- IC50 (Beta-galactosidase): > 80 µM (inactive)

Structure (SMILES): CN1CCN(C(=O)c2cc3sc4ccccc4c3s2)CC1
- EC50 [12]: > 260 µM (inactive)
- IC50 (Beta-galactosidase): > 80 µM (inactive)

Structure (SMILES): COc1cc(C(=O)Nc2nc(-c3cccs3)cs2)cc(OC)c1OC
- IC50 (Prothrombin): 2.64 µM (active)
- IC50 (H9c2): > 79 µM (inactive)
- AC50 [13]: > 52 µM (inactive)
- AC50 [14]: > 52 µM (inactive)
- AC50 [15]: 23.3 µM (active)
- AC50 [16]: 27.7 µM (active)

Structure (SMILES): CCOC(=O)c1ccc(NC(=O)c2ccc(CN3CCOCC3)cc2)cc1
- AC50 [17]: 19.3 µM (active)
